PubChem BioAssay AID1963954
Activity calls are given as the source filed them.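 The calls were made as follows: active = IL-1b release lowered by over 30% against vehicle-treated cells of the same ATG16L1 genotype; inactive = the rest.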

Test system: mouse BMDM IL-1b secretion, LPS+ATP, ELISA
Experiment: reduction of stimulated IL-1b secretion in BMDMs – cell-based, mouse BMDMs, ATG16L1 wt and T300A, LPS+ATP (AID 1963954)
Details: at 40 µM, stronger effect = lower value

**Q.** What does the source list for `CS(C)=O`?
**A.** normalized IL-1b secretion (unstimulated, ATG16L1 T300A): 0.05 (inactive); normalized IL-1b secretion (unstimulated, ATG16L1 wt): 0 (inactive); normalized IL-1b secretion (with LPS + ATP, ATG16L1 T300A): 1.39 (inactive); normalized IL-1b secretion (with LPS + ATP, ATG16L1 wt): 1 (inactive)

**Q.** Which normalized IL-1b secretion (with LPS + ATP, ATG16L1 T300A) does the source give for `CCC(C)(C)C(=O)C(=O)N1CCCC[C@H]1C(=O)N[C@H](CCc1ccc(OC)cc1)C(=O)N1[C@@H]2CC[C@H]1CC(Nc1nc(NCCc3sc(N)nc3C)nc(N3CCn4ncnc4C3)n1)C2` (stereo partly specified) here?
**A.** The normalized IL-1b secretion was 0.39.

**Q.** And the normalized IL-1b secretion (with LPS + ATP, ATG16L1 wt)?
**A.** Its normalized IL-1b secretion is 0.37.
